This is an account of results in article PMC3039689, “Identification of Small Molecule Lead Compounds for Visceral Leishmaniasis Using a Novel Ex Vivo Splenic Explant Model System” (PLoS Neglected Tropical Diseases, 2011).

Structures can show the parent of a compound that is named as a salt. Where two headings read alike, the source gives them in different places.

Data set [1] concerns HepG2 cells. Kind of data set: Cell toxicity (CC50) in the HepG2 cell line, CellTiter-Glo. Type of data set: cell-based, human. The procedure:
(§1) After 24 hours of culture at 37°C the number of viable cells was determined by quantification of the ATP present in the cell using the CellTiter-Glo luminescent Cell Viability Assay (Promega).
A general note: In ATP-based viability assays light output follows the ATP content of the culture.

Data set [2] concerns the target luciferase-transfected Leishmania donovani. The experiment in a line: Anti-leishmanial efficacy (EC50) in the ex vivo splenic explant model. It is filed as cell-based. The procedure:
To establish the plate assay for drug screening, the spleens from 2 infected hamsters were aseptically removed and placed in a Petri dish containing 5 mL of Collagenase D (Roche) at 2 mg/mL of buffer (10 mM Hepes pH 7.4, 150 mM NaCl, 5 mM KCl, 1 mM MgCl2, 1.8 mM CaCl2). The spleen was infiltrated by injection with approximately 2 mL of Collagenase solution, the tissue was cut into small pieces using sharp scissors, and incubated for 20 minutes at 37°C. The cell suspension and remaining tissue fragments were gently passed through a 100 µm cell strainer (B–D) to obtain a single cell suspension, which was washed twice by centrifugation (500 g for 7 min at 4°C) and re-suspended in culture medium composed of DMEM (Gibco), 5% FBS, 1 mM Sodium pyruvate (Gibco), 1X MEM amino acids solution (Sigma), 0.02% v/v/EDTA, 10 mM HEPES buffer (Cellgro) and 100 IU/mL Penicillin/100 […] Streptomycin solution (Cellgro).
The anti-leishmanial efficacy of the compounds was determined using the splenic explant model in a 96-well plate format. […] Because variation in the parasite burden between different explant cultures was expected, the concentration of cells used in each experiment was adjusted to give approximately 100 counts by luminometry (equivalent to ∼240,000 parasites). The number of surviving parasites was determined by luminometry as described above.

Data set [3] can be described thus: Cell toxicity (CC50) in the HepG2 cell line, CellTiter-Glo. The conditions noted are these: human. Type of data set: cell-based, human. As for the experimental part: as §1
[4] abbreviates: HepG2 cell line, 24 h, ATP luminescence, compound from screened library, read-out: HepG2 CC50 Mean.
Setting [5] is: ex vivo splenic explant, 48 h, luminometry, at least two experiments, compound from screened library, read-out: Ex vivo model EC50 Mean.
Setting [6] is: 50% reduction in parasite counts in the ex vivo model, read-out: EC50 Mean (Table S2).
[7] abbreviates: Leishmania donovani, 48 h, ex vivo splenic explant, 48 h, luminometry, at least two experiments, compound from screened library, read-out: Ex vivo model EC50 Mean.
The mark [8] stands for this setting: Leishmania donovani, 50% reduction in parasite counts in the ex vivo model, read-out: EC50 Mean (Table S2).
Where [9] appears, read: HepG2 cells, HepG2 cell line, 24 h, ATP luminescence, compound from screened library, read-out: HepG2 CC50 Mean.
The mark [10] stands for this setting: Leishmania donovani, ex vivo splenic explant, 48 h, luminometry, at least two experiments, compound from screened library, read-out: Ex vivo model EC50 Mean.

Take `CCN(CC)COC(=S)S` [Diethylaminomethoxymethanedithioic acid]: in data set [1] (setting [4]), the CC50 turned out to be 83.7 µM. The 50% effective concentration (EC50) in data set [2] (setting [5]) stood at 3.7 µM.
In the same order, the values of `CC1CC(C)(O)CC(C(O)CC2CC(=O)NC(=O)C2)C1=O` (stereo not drawn) [Streptovitacin A] are 32.4 µM and 3.7 µM.
In the same order, the values of `COc1ccc2c(=O)oc3c(OC)cc(CCN(C)C)c4c(=O)oc1c2c34` [Thaspine Acetate] are 51.4 µM and 2.7 µM.
The corresponding values for `O=c1c2ccccc2sc2c(CO)ccc(NCCN3CCCCC3)c12` [Thioxanthen-9-one, 4-(hydroxymethyl)-1-[(2-piperidinoethyl)amino]-; 9H-Thioxanthen-9-one, 4-(hydroxymethyl)-1-[[2-(1-piperidinyl)ethyl]amino]-] are 56 µM and 9.1 µM.
As to `Cc1cc(C(C)(C)CC(C)(C)C)ccc1OCCOCC[N+](C)(C)Cc1ccccc1` [Methylbenzethonium Chloride], the midpoint of cytotoxicity in data set [1], the CC50, lay at 53.2 µM. For the same compound, the half-maximal effective concentration (EC50) was found to be 7.06 µM in data set [2] (setting [6]) and 7.1 µM in data set [2] (setting [5]).
Turning to `CCCC(c1cc(C(C)(C)C)c(O)cc1C)c1cc(C(C)(C)C)c(O)cc1C` [Sumilit BBM], the CC50 in data set [1] (setting [4]) was found to be 71.7 µM. Further, in data set [2] (setting [5]), the EC50 was determined as 9.4 µM.
On to `OC(c1cc(-c2ccccc2)nc2c1ccc1ccccc12)C1CCCCN1` (stereo not drawn) [2-phenylbenzo[h]quinolin-4-yl)(2-piperidinyl)me], for which the CC50 in data set [1] (setting [4]) is 28.7 µM. For the same compound, the EC50 in data set [2] (setting [5]) was determined as 5 µM.
For `O=C1C=C2C=C[C@H]3C[C@]2(O1)[C@@H]1CCCCN13` [Virosecurinine], the 50% cytotoxic concentration (CC50) in data set [1] (setting [4]) amounted to 121 µM. Also, in data set [2] (setting [5]), the EC50 worked out at 8.8 µM.
In the same order, the values of `CCN(CC)CC(O)c1ccc2ccc3ccccc3c2c1` (stereo not drawn) [3-Phenanthrenemethanol, α-[ (diethylamino)methyl]-, hydrochloride] are 54.2 µM and 8.9 µM.
The corresponding values for “7-(2-(6-Ethoxy-1-methyl-1.lambda.~5~-quinolin-2-yl)vinyl)-5-methyl-8-quinolinol; Quinolinium, {6-ethoxy-2-[2-(8-hydroxy-5-methyl-7-quinolyl)vinyl]-1-methyl-} iodide” are 46 µM and 5.7 µM.
As to `C=C1C(=O)[C@]23[C@H](O)[C@H]1CC[C@H]2[C@@]12CO[C@]3(O)[C@@H](O)[C@@H]1C(C)(C)CC[C@@H]2O` [Rubescensin A], the CC50 in data set [1] is 69.1 µM. For the same compound, the EC50 in data set [2] (setting [5]) is 11 µM.
With `CC(C)=CC(=O)O[C@H]1[C@H]2[C@H](OC(=O)[C@H]2C)[C@H](O)[C@@H](C)[C@@H]2C=CC(=O)[C@]21C` [Fastigilin B], the CC50 in data set [1] (setting [4]) came to 44.8 µM. Also, the EC50 in data set [2] (setting [5]) amounted to 8.9 µM.
Compound `CO[C@@H]1C[C@@H](C[C@H]2CC[C@H](C)[C@H]([C@@H](C)C(=O)O)O2)O[C@]2(O[C@](C)([C@H]3CC[C@@](C)([C@@H]4O[C@@H]([C@H]5O[C@@](O)(CO)[C@H](C)C[C@@H]5C)C[C@@H]4C)O3)C[C@H]2C)[C@@H]1C` [Nigericin, monosodium salt] had a CC50 at 24 h in data set [3] of 34.3 µM. Moreover, the concentration giving a half-maximal response (EC50) was found to be 3.1 µM in data set [2] (setting [7]) and 3.13 µM in data set [2] (setting [8]).
With `COc1cc2ccccc2c2cc([N+](=O)[O-])oc12` [Naphtho(2,1-b)furan, 4-methoxy-2-nitro-], it took 64.3 µM to reach half-maximal cytotoxicity in data set [3] (CC50 at 24 h). In addition, the EC50 in data set [2] (setting [7]) stood at 6.8 µM.
In the case of Benzalkonium Chloride, the CC50 in data set [1] (setting [4]) stood at 38.6 µM. Moreover, in data set [2] (setting [5]), the EC50 was 6.4 µM.
Consider `NCCCCNCCCN` [Spermidine Trihydrochloride], for which the CC50 at 24 h in data set [3] (setting [9]) is 132 µM. Besides, the EC50 in data set [2] (setting [7]) was determined as 20 µM.
Regarding `C=C1C(=O)O[C@@H]2[C@H]1CC[C@H](C)[C@]1(O)C=CC(=O)[C@@]21C` [Parthenicin], the CC50 in data set [1] (setting [4]) was 64.5 µM. Besides, in data set [2] (setting [5]), the EC50 stood at 8.7 µM.
With `c1ccc2c(c1)Sc1ccccc1N2CC1CN2CCC1CC2` (stereo not drawn) [Mequitazine,10-(3-Quinuclidinylmethyl)phenothiazine], the CC50 in data set [1] (setting [4]) is 50.3 µM. Further, the EC50 in data set [2] (setting [5]) stood at 8.5 µM.
Turning to `c1ccc(-c2ccc(-c3ccc(C4=NCCN4)cc3)o2)cc1` [2-[4-(5-phenylfuran-2-yl)phenyl]-4,5-dihydro-1H-imidazole chloride], in data set [1], the midpoint of cytotoxicity, the CC50, lay at 42.9 µM. The EC50 in data set [2] (setting [5]) is 7.5 µM.
In the case of `CC[C@@H](C(=O)[C@@H](C)[C@@H](O)[C@H](C)[C@@H]1O[C@@H]([C@@H](CC)C(=O)O)CC[C@@H]1C)[C@H]1O[C@]2(C=C[C@@H](O)[C@]3(CC[C@@](C)([C@H]4CC[C@](O)(CC)[C@H](C)O4)O3)O2)[C@H](C)C[C@@H]1C` [Salinomycin, Sodium], the CC50 in data set [1] (setting [4]) amounted to 48.4 µM. The half-maximal effective concentration (EC50) worked out at 7.44 µM in data set [2] (setting [6]) and 7.4 µM in data set [2] (setting [5]).
For the compound `C=C1C(=O)O[C@H]2C[C@@H]1[C@@H](OC(C)=O)C/C(C)=C/CC/C(C)=C\CC[C@@]2(C)O` [Crassin], the CC50 at 24 h in data set [3] (setting [9]) was determined as 51.6 µM. The EC50 in data set [2] (setting [7]) came out at 8.9 µM.
`CNCCC=C1c2ccccc2CCc2ccccc21` [Nortriptyline Hydrochloride] returned a 50% cytotoxic concentration (CC50) in data set [3] of 52.6 µM. For the same compound, the EC50 in data set [2] (setting [7]) is 7.8 µM.
`CCCCCCCCCCC[C@@H](C[C@@H]1OC(=O)[C@H]1CCCCCC)OC(=O)[C@H](CC(C)C)NC=O` [Orlistat] gave a CC50 at 24 h in data set [3] of 161 µM. Also, in data set [2] (setting [7]), the EC50 came to 24.9 µM.
Regarding `CCC1=C(CC2NCCc3ccccc32)CC2c3cc(OC)c(OC)cc3CCN2C1` (stereo not drawn) [3-ethyl-9,10-dimethoxy-2-(1,2,3,4-tetrahydro-isoquinolin-1-ylmethyl)-1,6,7,11b-tetrahydro-4H-pyrido(2,1-a)isoquinoline], in data set [3] (setting [4]), the CC50 stood at 24 µM. For the same compound, in data set [2] (setting [10]), the EC50 was determined as 2.7 µM.
In the same order, the values of `Cc1nccc2c1[nH]c1cc(O)ccc12` [Harmol Hydrochloride] are 60.2 µM and 11.2 µM.
In the case of `CCC1=C(CC2NCCc3cc(OC)c(OC)cc32)CC2c3ccccc3CCN2C1` (stereo not drawn) [2-[(6,7-dimethoxy-1,2,3,4-tetrahydroisoquinolin-1-yl)methyl]-3-ethyl-4,6,7,11b-tetrahydro-1H-pyrido[2,1-a]isoquinoline], in data set [1] (setting [4]), the CC50 turned out to be 76.2 µM. Besides, the EC50 in data set [2] (setting [5]) is 8.8 µM.
In the same order, the values of `CSc1ccc2c(c1)N(CCCN(C)C)c1ccccc1S2` [Thiomethylpromazine] are 83.9 µM and 13 µM.
`Cc1cc(O)ccc1Cl` [Chlorocresol]: the CC50 at 24 h in data set [3] (setting [9]) stood at 138 µM. The EC50 in data set [2] (setting [8]) came to 8.02 µM; in data set [2] (setting [10]) it was 8 µM.
Turning to `C[C@@H]1C[C@H]2CC[C@H](O2)[C@H](C)C(=O)O[C@@H](C)C[C@@H]2CC[C@@H](O2)[C@@H](C)C(=O)O[C@H](C)C[C@H]2CC[C@H](O2)[C@H](C)C(=O)O[C@@H](C)C[C@@H]2CC[C@@H](O2)[C@@H](C)C(=O)O1` [Nonactin], it took 23.7 µM to reach half-maximal cytotoxicity in data set [3] (CC50). In addition, the EC50 in data set [2] (setting [10]) amounted to 0.1 µM.
As for `COc1cc(O)c(C(=O)/C=C/c2ccc(O)c(OC)c2)c(OC)c1` [2',4-dihydroxy-3,4',6'-trimethoxychalcone], in data set [3] (setting [9]), the CC50 at 24 h was determined as 106 µM. Also, the EC50 in data set [2] (setting [7]) amounted to 14.6 µM.
Compound `COc1ccc2cc1Oc1ccc(cc1)C[C@H]1c3cc(c(OC)cc3CCN1C)Oc1c(OC)c(OC)cc3c1[C@H](C2)N(C)CC3` [Tetrandrine] displayed a CC50 at 24 h in data set [3] of 31.4 µM. In addition, the EC50 in data set [2] (setting [10]) stood at 5.6 µM.
For `CC1=CC(C2/C(=N/O)C=C(C)CC2(C)C)C(O)C(C)(C)C1` (stereo not drawn) [Cristox Oxime], the CC50 in data set [1] (setting [4]) stood at 140 µM. Also, in data set [2] (setting [5]), the concentration for a half-maximal effect (EC50) came out at 10.9 µM.
In the case of `CN(C)CCCNc1c2c(=O)n(C)c(=O)nc-2n(C)c2ccccc12` [Pyrimido[4,5-b]quinoline-2,4(3H,10H)-dione, 5-[[3-(dimethylamino)propyl]amino]-3,10-dimethyl-, monohydrochloride], the CC50 at 24 h in data set [3] (setting [9]) is 49.5 µM. In data set [2] (setting [7]), the EC50 was found to be 6.5 µM.
`CN(C)CCCN1c2ccccc2Sc2ccc3ccccc3c21` [3-(12H-benzo[a]phenothiazin-12-yl)-N,N-dimethyl-1-propanamine]: the CC50 in data set [3] (setting [4]) came out at 66.6 µM. Moreover, the EC50 in data set [2] (setting [10]) worked out at 11.5 µM.
Turning to `N=C1C=CC(=C(c2ccc(N)cc2)c2ccc(N)cc2)C=C1` [Pararosaniline Pamoate], the CC50 at 24 h in data set [3] worked out at 37.1 µM. In addition, the EC50 in data set [2] (setting [10]) was 2.7 µM.
`Cc1cc(N2CCCCC2)nc2ccc(Cc3ccc4nc(N5CCCCC5)cc(C)c4c3)cc12` [4-methyl-6-((4-methyl-2-(1-piperidinyl)-6-quinolinyl)methyl)-2-(1-piperidinyl)quinoline] had a CC50 at 24 h in data set [3] of 109 µM. Moreover, the concentration for a half-maximal effect (EC50) in data set [2] (setting [10]) was 18.4 µM.
On to `CCCCCCCCCCCCCCCC[N+](C)(C)C` [Cetrimonium Bromide], for which, in data set [3] (setting [4]), the cytotoxic concentration (CC50) is 42.9 µM. The half-maximal effective concentration (EC50) in data set [2] (setting [10]) is 6.1 µM.

The CC50 is the concentration giving 50% cytotoxicity. For orientation: EC50 means the concentration needed to bring the measured effect to its halfway point.
